Test results from ChEMBL document CHEMBL1201862, “PubChem BioAssay data set” (2004).
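Five compound concentrations were applied to cells in 96-well plates for 48 hours; endpoints were derived by simple linear interpolation of the resulting dose-response curve. Abbreviation: GI50, concentration required for 50% inhibition of growth.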 The source made the active and inactive calls. Rule as the data show it: active = GI50 up to about 1.1 µM and inactive = higher. Square brackets hold non-standard residues; d marks the D form. Peptide text beside a SMILES is read from it. pGlu = O=C1CC[CH](C(=O)O)N1

How the values were obtained:
Test in all cases: inhibition of tumour cell growth, NCI panel, 48 h
NCI-H23 = system: NCI-H23
COLO 205 = system: COLO 205
LOX IMVI = system: LOX IMVI
KM12 = system: KM12
SF-268 = system: SF-268
NCI-H522 = system: NCI-H522
SF-295 = system: SF-295
K562 = system: K562
OVCAR-8 = system: OVCAR-8
ACHN = system: ACHN
T47D = system: T47D
SK-MEL-28 = system: SK-MEL-28
HCT-116 = system: HCT-116
Hs-578T = system: Hs-578T
SR = system: SR
MDA-MB-231 = system: MDA-MB-231
RXF 393 = system: RXF 393
OVCAR-5 = system: OVCAR-5
M14 = system: M14
SK-MEL-2 = system: SK-MEL-2

Compound | GI50 (NCI-H23) | GI50 (COLO 205) | GI50 (LOX IMVI) | GI50 (KM12) | GI50 (SF-268) | GI50 (NCI-H522) | GI50 (SF-295) | GI50 (K562) | GI50 (OVCAR-8) | GI50 (ACHN) | GI50 (T47D) | GI50 (SK-MEL-28) | GI50 (HCT-116) | GI50 (Hs-578T) | GI50 (SR) | GI50 (MDA-MB-231) | GI50 (RXF 393) | GI50 (OVCAR-5) | GI50 (M14) | GI50 (SK-MEL-2)
COc1ccc(CNc2nc3ccccc3nc2-c2cccs2)cc1 | 62.4 µM (inactive) | 38.1 µM (inactive) | 12.2 µM (inactive) | 28.9 µM (inactive) | > 100 µM (inactive) | 23.5 µM (inactive) | 46.7 µM (inactive) | 23.6 µM (inactive) | 28.9 µM (inactive) | 57.5 µM (inactive) | 22.9 µM (inactive) | > 100 µM (inactive) | 26.7 µM (inactive) | 23.4 µM (inactive) | 15.6 µM (inactive) | 23.6 µM (inactive) | 23.8 µM (inactive) | > 100 µM (inactive) |  | 
CCN1C(c2ccccc2)=CC(c2ccccc2)(C(Cl)(Cl)Cl)C=C1c1ccccc1 | 8.81 µM (inactive) |  | 8.45 µM (inactive) | 3.31 µM (inactive) | 11.5 µM (inactive) | 5.69 µM (inactive) | 32.5 µM (inactive) | 2.52 µM (inactive) | 6.49 µM (inactive) | 24.9 µM (inactive) | 0.44 µM (active) | 3.92 µM (inactive) | 4.66 µM (inactive) | 25.7 µM (inactive) | > 10 µM (inactive) | 3.4 µM (inactive) | 17.5 µM (inactive) | 15.1 µM (inactive) | 4.35 µM (inactive) | 
C/C=C(/C)C(=O)O[C@H]1C(C)=C[C@]23C(=O)[C@@H](C=C(COC(C)=O)[C@@H](O)[C@]12O)[C@H]1[C@@H](C[C@H]3C)[C@@]1(C)OC(=O)/C(C)=C\C | 2.42 µM (inactive) | 0.0596 µM (active) | 3.1 µM (inactive) | 1.32 µM (inactive) | 0.655 µM (active) | 1.8 µM (inactive) | 1.08 µM (active) | 0.0205 µM (active) | 3.72 µM (inactive) | 0.546 µM (active) | 1.22 µM (inactive) | 3.69 µM (inactive) | 2.14 µM (inactive) | 0.0792 µM (active) | 2.67 µM (inactive) | 3.03 µM (inactive) | 2.65 µM (inactive) | 3.15 µM (inactive) | 2.29 µM (inactive) | 3 µM (inactive)
CC(NC(=O)C(Cc1c[nH]cn1)NC(=O)C1CCC(=O)N1)C(N)=O (stereo not drawn) ([pGlu]-His-Ala-NH2; configuration not given here) | > 100 µM (inactive) | > 100 µM (inactive) | > 100 µM (inactive) | > 100 µM (inactive) | > 100 µM (inactive) |  | > 100 µM (inactive) | > 100 µM (inactive) | > 100 µM (inactive) | > 100 µM (inactive) | > 100 µM (inactive) | > 100 µM (inactive) | > 100 µM (inactive) | > 100 µM (inactive) | > 100 µM (inactive) | > 100 µM (inactive) | > 100 µM (inactive) | > 100 µM (inactive) | > 100 µM (inactive) | 
Nc1nc(Nc2ccccc2)sc1C(=O)c1c[nH]c2ccccc12 | 17.5 µM (inactive) | 4.2 µM (inactive) | 13.5 µM (inactive) | 10.2 µM (inactive) | 15.1 µM (inactive) |  |  | 4.06 µM (inactive) |  | 15.6 µM (inactive) | 6.49 µM (inactive) | 11.7 µM (inactive) | 6.97 µM (inactive) | 16.3 µM (inactive) | 1.45 µM (inactive) | 17.2 µM (inactive) | 8.49 µM (inactive) | 11.9 µM (inactive) | 8 µM (inactive) | 15.1 µM (inactive)
COc1ccc(CC2c3cc(OC)c(OC)c(OC)c3CC[N+]2(C)C)cc1Oc1ccc(CC2c3cc4c(c(OC)c3CC[N+]2(C)C)OCO4)cc1 (configuration not stated) | > 100 µM (inactive) | > 100 µM (inactive) | > 100 µM (inactive) | > 100 µM (inactive) | > 100 µM (inactive) | > 100 µM (inactive) | > 100 µM (inactive) | > 100 µM (inactive) | > 100 µM (inactive) | > 100 µM (inactive) | > 100 µM (inactive) | > 100 µM (inactive) | > 100 µM (inactive) | 80.9 µM (inactive) | > 100 µM (inactive) | > 100 µM (inactive) |  | > 100 µM (inactive) | > 100 µM (inactive) | > 100 µM (inactive)
O=C(O)CN1CCNCCN(CC(=O)O)CCNCC1 | 44.4 µM (inactive) | 6.64 µM (inactive) | 79.4 µM (inactive) | 5.75 µM (inactive) | > 100 µM (inactive) | 14.7 µM (inactive) | > 87.7 µM (inactive) | 3.85 µM (inactive) | 42.3 µM (inactive) | > 100 µM (inactive) | > 48.2 µM (inactive) |  | 4.75 µM (inactive) | > 24.1 µM (inactive) | 5.14 µM (inactive) | > 100 µM (inactive) | > 100 µM (inactive) | > 85.1 µM (inactive) | > 100 µM (inactive) | > 100 µM (inactive)
O=C(CC(C(=O)c1cccs1)c1cccs1)c1ccsc1 (configuration not stated) | 35.6 µM (inactive) | 45.3 µM (inactive) | 10.2 µM (inactive) | 34 µM (inactive) | 56.4 µM (inactive) |  |  | 46 µM (inactive) | 59.2 µM (inactive) | 67 µM (inactive) | 39.6 µM (inactive) | 47.5 µM (inactive) | 36.6 µM (inactive) | > 100 µM (inactive) | 37.2 µM (inactive) | 38 µM (inactive) |  | > 100 µM (inactive) | 38.2 µM (inactive) | 35.7 µM (inactive)
CC1=Nc2nc3ccccc3n2C(C)(C)C1 | > 100 µM (inactive) | > 100 µM (inactive) | > 100 µM (inactive) | > 100 µM (inactive) | > 100 µM (inactive) | > 100 µM (inactive) | > 100 µM (inactive) | > 100 µM (inactive) | > 100 µM (inactive) | > 100 µM (inactive) | > 100 µM (inactive) |  | > 100 µM (inactive) | > 100 µM (inactive) | > 100 µM (inactive) | > 100 µM (inactive) | > 100 µM (inactive) | > 100 µM (inactive) | > 100 µM (inactive) | > 100 µM (inactive)
O=C(CCC=C(S(=O)(=O)c1ccccc1)S(=O)(=O)c1ccccc1)c1ccccc1 |  | 7.11 µM (inactive) | 3.26 µM (inactive) | 10.9 µM (inactive) | 4.59 µM (inactive) | 2.76 µM (inactive) | 22.5 µM (inactive) | 3.73 µM (inactive) | 4.58 µM (inactive) | 5.93 µM (inactive) | 5.43 µM (inactive) | 12.1 µM (inactive) | 3.42 µM (inactive) | 5.22 µM (inactive) | 3.01 µM (inactive) | 8.04 µM (inactive) | 4.18 µM (inactive) | 10.7 µM (inactive) | 7.1 µM (inactive) | 2.38 µM (inactive)
O=C1c2ccccc2CC12Cc1cc3c(cc1C2=O)CCC3 (configuration not stated) | > 100 µM (inactive) |  | > 100 µM (inactive) |  | > 100 µM (inactive) | > 100 µM (inactive) | > 100 µM (inactive) | > 100 µM (inactive) | > 100 µM (inactive) | > 100 µM (inactive) | > 100 µM (inactive) | > 100 µM (inactive) | > 100 µM (inactive) | > 100 µM (inactive) | > 100 µM (inactive) | > 100 µM (inactive) | > 100 µM (inactive) | > 100 µM (inactive) | > 100 µM (inactive) | > 100 µM (inactive)
